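Interpolation was linear, between the two tested concentrations surrounding the appropriate level; five concentrations were tested over 48 hours in 96-well plates. GI50 is the concentration that inhibits growth by half. TGI is the concentration that stops growth completely.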
How the values were obtained:
Assay in all cases: inhibition of tumour cell growth, NCI panel, 48 h
DLD-1 colon = system: DLD-1 colon
HL-60(TB) leukemia = system: HL-60(TB) leukemia
HOP-62 NSCLC = system: HOP-62 NSCLC
IGROV1 ovarian = system: IGROV1 ovarian
KM20L2 colon = system: KM20L2 colon
SF-539 CNS = system: SF-539 CNS
SNB-78 CNS = system: SNB-78 CNS
HS 578T breast = system: HS 578T breast
M14 melanoma = system: M14 melanoma
MDA-MB-435 = system: MDA-MB-435
T-47D breast = system: T-47D breast
LXFL 529 NSCLC = system: LXFL 529 NSCLC

| Structure (SMILES) | TGI (DLD-1 colon) | TGI (HL-60(TB) leukemia) | TGI (HOP-62 NSCLC) | TGI (IGROV1 ovarian) | TGI (KM20L2 colon) | TGI (SF-539 CNS) | TGI (SNB-78 CNS) | TGI (HS 578T breast) | TGI (M14 melanoma) | TGI (MDA-MB-435) | TGI (T-47D breast) | GI50 (HL-60(TB) leukemia) | GI50 (HOP-62 NSCLC) | GI50 (HS 578T breast) | GI50 (IGROV1 ovarian) | GI50 (MDA-MB-435) | GI50 (SF-539 CNS) | GI50 (T-47D breast) | TGI (LXFL 529 NSCLC) | GI50 (M14 melanoma) |
| --- | --- | --- | --- | --- | --- | --- | --- | --- | --- | --- | --- | --- | --- | --- | --- | --- | --- | --- | --- | --- |
| CC1(CO)C(O)CCC2(C)C1C(O)CC1CC3CC12CCC3(O)CO (centres undefined) | > 225 µM | > 225 µM | > 225 µM | > 225 µM | > 225 µM | > 225 µM | > 225 µM | – | – | – | – | – | – | – | – | – | – | – | – | – |
| O=c1ccn(Cc2ccccc2CCl)c(=O)[nH]1 | – | > 100 µM | 52.7 µM | 55.3 µM | – | 52.7 µM | – | 91.2 µM | 73.9 µM | 96.5 µM | > 100 µM | – | – | – | – | – | – | – | – | – |
| Fc1ccc(Nc2ncc(-c3cc(F)c(Cl)cc3Cl)s2)cc1Cl | – | 36.2 µM | 21.8 µM | > 100 µM | – | 32.5 µM | – | 36.4 µM | – | 32.5 µM | > 100 µM | 18.1 µM | 9.43 µM | 11.5 µM | 26.2 µM | 15.4 µM | 10.5 µM | > 100 µM | – | – |
| CC(=O)Nc1c2sscc-2n(C)c1=O | – | 5.9 µM | 3.15 µM | 4.65 µM | – | 3.52 µM | – | 10.3 µM | 0.865 µM | 2.51 µM | 3.19 µM | – | – | – | – | – | – | – | – | – |
| OCC(O)C(O)C(O)C(O)CNCCO/N=C1/C(c2c(O)[nH]c3ccccc23)=Nc2ccccc21 (centres undefined) | – | 37.9 µM | 22.9 µM | > 50 µM | – | 41.6 µM | – | 44.4 µM | > 50 µM | 20.4 µM | 22.5 µM | – | – | – | – | – | – | – | – | – |
| O=C(CC(Cc1ccccc1)c1ccc(Oc2ccccc2)cc1)Nc1cccc(Cl)c1 (centres undefined) | – | 10.2 µM | > 100 µM | 16.3 µM | – | > 100 µM | – | > 100 µM | > 100 µM | > 100 µM | 8.49 µM | – | – | – | – | – | – | – | – | – |
| COc1ccc(C2CC(c3ccc(NS(=O)(=O)c4cc([N+](=O)[O-])ccc4C)cc3)=NN2S(=O)(=O)c2cc([N+](=O)[O-])ccc2C)cc1 (centres undefined) | – | > 100 µM | > 100 µM | > 100 µM | – | – | – | – | > 100 µM | > 100 µM | > 100 µM | – | – | – | – | – | – | – | – | – |
| N#CC(NNC(=O)c1c(Cl)c(Cl)c(Cl)c(Cl)c1-c1nc2ccc(C(=O)c3ccccc3)cc2[nH]1)c1ccccc1 (centres undefined) | – | 45.6 µM | 63.7 µM | > 100 µM | – | 14.5 µM | – | > 100 µM | 31.1 µM | 15.3 µM | 98.8 µM | – | – | – | – | – | – | – | – | – |
| O=[N+]([O-])c1ccc(NNN=Nc2ccc(-c3nc4ccccc4[nH]3)cc2)c([N+](=O)[O-])c1 | – | > 100 µM | > 100 µM | > 100 µM | – | > 100 µM | – | > 100 µM | > 100 µM | > 100 µM | > 100 µM | – | – | – | – | – | – | – | – | – |
| COc1ccc(/C=C2\C[C@H]3[C@@H]4CC=C5C[C@@H](OC(C)=O)CC[C@]5(C)[C@H]4CC[C@]3(C)C2=O)cc1OC | – | 78.9 µM | > 100 µM | > 100 µM | – | > 100 µM | – | > 100 µM | > 100 µM | > 100 µM | > 100 µM | – | – | – | – | – | – | – | – | – |
| COC1=CC(=O)c2c(c(COC(C)=O)cn2C)C1=O | – | 0.694 µM | – | 0.443 µM | – | 0.313 µM | – | – | 0.195 µM | 0.28 µM | 3.67 µM | – | – | – | – | – | – | – | – | – |
| C1=Nc2ccccc2Cn2nncc21 | > 100 µM | > 100 µM | > 100 µM | > 100 µM | > 100 µM | > 100 µM | – | – | > 100 µM | – | – | – | – | – | – | – | – | – | > 100 µM | – |
| CC(C)NC(=O)OCc1nnn2c1CCC2 | > 100 µM | > 100 µM | > 100 µM | > 100 µM | > 100 µM | > 100 µM | > 100 µM | – | > 100 µM | – | – | – | – | – | – | – | – | – | > 100 µM | – |
| COc1ccc(N2C(=O)C(=O)N(C)C2=O)c2ccccc12 | – | > 10 µM | > 10 µM | > 10 µM | – | > 10 µM | – | > 10 µM | > 10 µM | > 10 µM | > 10 µM | – | – | – | – | – | – | – | – | – |
| OC(c1ccccc1)C1CC2C=CC1C2 (centres undefined) | > 100 µM | > 100 µM | > 100 µM | > 100 µM | – | > 100 µM | > 100 µM | – | > 100 µM | – | – | – | – | – | – | – | – | – | > 100 µM | – |
| O=[N+]([O-])c1ccc(Cc2nc3cc4ccccc4cc3[nH]2)cc1C(F)(F)F | – | > 100 µM | 27.3 µM | – | – | 39.1 µM | – | 49.9 µM | 25.2 µM | 21 µM | 21.6 µM | – | – | – | – | – | – | – | – | – |
| Clc1ccc(C2CC(c3cccc(Nc4ccncc4)c3)=NN2c2ccccc2)cc1 (centres undefined) | – | 3.87 µM | 5.15 µM | 3.04 µM | – | 3.09 µM | – | – | 3.37 µM | 3.07 µM | 4.86 µM | 1.71 µM | 2.31 µM | – | 1.56 µM | 1.62 µM | 1.7 µM | 2.1 µM | – | 1.73 µM |
| COc1cc(/C=N/N=C(\N)NO)ccc1O | > 100 µM | – | – | > 100 µM | – | > 100 µM | > 100 µM | – | – | – | – | – | – | – | – | – | – | – | > 100 µM | – |
| CC(C)C(=O)Nc1ccc(-c2nc(-c3cccc(OCCN4CCOCC4)c3)c(-c3ccnc(Br)c3)[nH]2)cc1 | – | – | 14.5 µM | > 100 µM | – | 8.65 µM | – | 3.69 µM | 4.46 µM | 10 µM | 34.2 µM | – | 2.94 µM | 1.04 µM | 3.75 µM | 2.92 µM | 2.3 µM | 2.68 µM | – | 1.93 µM |
| CC(C)(C)CNCCCNc1ccc(Cl)cc1 | – | 0.172 µM | > 100 µM | > 100 µM | – | > 100 µM | – | > 100 µM | 58.6 µM | 68.2 µM | – | – | – | – | – | – | – | – | – | – |
| Fc1cc(C2=Nn3c(CNc4ccc(Cl)cc4)nnc3S/C2=C\c2ccc(-c3ccc(Cl)cc3)o2)c(Cl)cc1Cl | – | > 100 µM | 91.6 µM | > 100 µM | – | – | – | > 100 µM | > 100 µM | > 100 µM | > 100 µM | – | – | – | – | – | – | – | – | – |
| O=C(c1cc(Cl)cc(Cl)c1)N(Cc1cccnc1)C(=S)N(Cc1cccnc1)C(=O)c1cc(Cl)cc(Cl)c1 | – | 90 µM | 75.1 µM | – | – | 51.4 µM | – | > 100 µM | 72 µM | > 100 µM | > 100 µM | – | – | – | – | – | – | – | – | – |
| CNCCCn1c2c(c3ccc(Cl)cc3c1=O)C(=O)c1cc(OC)cnc1-2 | – | 2.4 µM | – | – | – | – | – | – | 1.89 µM | 2.32 µM | – | 0.601 µM | – | – | – | 1.07 µM | – | – | – | 0.569 µM |
| CSC1=C(SC)C(=O)c2cn(C)c(=O)cc2C1=O | – | – | 24.8 µM | 25.4 µM | – | 25.3 µM | – | > 26.5 µM | 3.14 µM | 3.35 µM | 3.99 µM | – | – | – | – | – | – | – | – | – |
| O=c1ccc2c(Cl)cccc2o1 | – | > 100 µM | > 100 µM | > 100 µM | – | > 100 µM | – | > 100 µM | > 100 µM | > 100 µM | > 100 µM | – | – | – | – | – | – | – | – | – |

Reference: PubChem BioAssay (NCI)
